Data reported in US20200223837A1, “BENZOFURAN AMIDES AND HETEROAROMATIC ANALOGUES THEREOF FOR USE IN THERAPY” (European Molecular Biology Laboratory, priority 2017, published 2020).

Tested on: A549 lung adenocarcinoma cells
Test: Growth of A549 cells in nude mice (xenograft)
Format: in vivo
Details: 3 mg/kg and 10 mg/kg i.p. QD
Experimental: The following test can be conducted for determining, if administration of compounds influences the growth of A549 cells in nude mice, in comparison to solvent only and to carboplatin, a standard of care. An i.p. route of administration is evaluated at 10 and 3 mg/kg delivered i.p., q.d. and compared with solvent control and carboplatin at 75 mg/kg delivered Q7D4 ip. Eight mice are used per study condition.
Compounds are supplied as a dry powder. Each compound is first dissolved in DMSO to yield an appropriate concentration then mixed with 9 volumes of a previously prepared solution of Cremophor-EL: 5% Mannitol (1:8, v/v) warmed to 37° C. while vigorously vortexing. This mixture is sonicated in an ultrasonic bath heated to 40° C. for 15-20 min. The formulations are stable for 24 hours at ambient temperature. A working formulation batch is prepared immediately prior to the in vivo study. A dose volume of 5 ml/kg is used for each concentration and route of administration.
NMRI-nu/nu nude mice are injected subcutaneously in one flank with 5×10^6 A549 cells in 200 μl of DMEM prepared by trypsinizing an exponentially growing culture of cells. Tumours are allowed to develop to an approximate volume of 100 mm^3, (approximately one week after initiation) and thereafter treatment commenced. Body weights and tumour volume are determined every two days. […]

## Cc1cnc(NC(=O)Cc2coc3cc4c(cc23)CCC4)s1 [Example 64, 2-(6,7-Dihydro-5H-cyclopenta[f]benzofuran-3-yl)-N-(5-methylthiazol-2-yl)acetamide]
  body weight or signs of toxicity: No significant changes in body weight or signs of toxicity were apparent
Performed as well as carboplatin
  growth of A549 lung adenocarcinoma cells in nude mice: substantially prevented the growth
